Laboratory results from article PMC3441724, “Mechanistic Insights into Validoxylamine A 7'-Phosphate Synthesis by VldE Using the Structure of the Entire Product Complex” (PLoS ONE, 2012).

Assays:
VldE = target: T1, VldE (Streptomyces hygroscopicus, UniProt Q15JG1); test: X-ray crystal structure; format: binding; conditions: ternary complex with GDP, pH 8.0, open conformation
T1 construct: (His)6-tagged full-length protein, 497 residues per monomer, expressed in E. coli BL21(DE3) pLysS; homodimer; residues 1, 2 and 482-497 not modelled
T1 sequence (Q15JG1 1-497): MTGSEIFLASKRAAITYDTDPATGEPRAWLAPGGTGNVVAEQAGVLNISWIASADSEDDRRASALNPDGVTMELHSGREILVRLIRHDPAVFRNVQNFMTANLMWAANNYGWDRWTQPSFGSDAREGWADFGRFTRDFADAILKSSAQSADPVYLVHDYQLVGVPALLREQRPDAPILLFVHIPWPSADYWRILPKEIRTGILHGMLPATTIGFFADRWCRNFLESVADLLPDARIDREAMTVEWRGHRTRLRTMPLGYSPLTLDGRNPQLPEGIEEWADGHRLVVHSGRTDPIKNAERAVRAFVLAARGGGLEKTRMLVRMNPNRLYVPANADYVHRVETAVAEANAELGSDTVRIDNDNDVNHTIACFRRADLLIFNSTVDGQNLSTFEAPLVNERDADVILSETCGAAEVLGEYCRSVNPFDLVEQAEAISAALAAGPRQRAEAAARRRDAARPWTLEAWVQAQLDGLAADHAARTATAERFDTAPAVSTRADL

[1] = target: the molecule itself; test: crystal structure; sitting drop vapor diffusion, 293 K, Tris-HCl pH 8.0 with polyethylene glycol 3,350; two monomers modeled within the asymmetric unit (apo, GDP, GDP+VDO), six monomers in VldE•GDP•TRE

OC[C@H]1O[C@H](O[C@H]2O[C@H](CO)[C@@H](O)[C@H](O)[C@H]2O)[C@H](O)[C@@H](O)[C@@H]1O [TRE, trehalose]
X-ray crystal structure (VldE; 2.81 Å, 3% trehalose, 1 mM GDP, 20 mM MgCl2, cyclitol binding sites, bound in two of six monomers): structure of VldE in complex with both GDP and trehalose (VldE•GDP•TRE)

O=P(O)(O)OC[C@H]1C[C@H](N[C@H]2C=C(CO)[C@@H](O)[C@H](O)[C@H]2O)[C@H](O)[C@@H](O)[C@@H]1O [VDO, validoxylamine A 7′-phosphate]
X-ray crystal structure (VldE; 2.11 Å, crystal soaked with 5 mM GDP and 10 mM VDO, cyclitol (donor and acceptor) sites): The first crystallographic structure of VldE in complex with the entirety of its products

B1: VldE from S. hygroscopicus subsp. limoneus (enzyme)
chain: MTGSEIFLASKRAAITYDTDPATGEPRAWLAPGGTGNVVAEQAGVLNISWIASADSEDDRRASALNPDGVTMELHSGREILVRLIRHDPAVFRNVQNFMTANLMWAANNYGWDRWTQPSFGSDAREGWADFGRFTRDFADAILKSSAQSADPVYLVHDYQLVGVPALLREQRPDAPILLFVHIPWPSADYWRILPKEIRTGILHGMLPATTIGFFADRWCRNFLESVADLLPDARIDREAMTVEWRGHRTRLRTMPLGYSPLTLDGRNPQLPEGIEEWADGHRLVVHSGRTDPIKNAERAVRAFVLAARGGGLEKTRMLVRMNPNRLYVPANADYVHRVETAVAEANAELGSDTVRIDNDNDVNHTIACFRRADLLIFNSTVDGQNLSTFEAPLVNERDADVILSETCGAAEVLGEYCRSVNPFDLVEQAEAISAALAAGPRQRAEAAARRRDAARPWTLEAWVQAQLDGLAADHAARTATAERFDTAPAVSTRADL
notes: VldE, pseudo-glycosyltransferase of Streptomyces hygroscopicus subsp. limoneus; 994 possible residues for two monomers (497 each); the apo model lacks residues 1, 2 and 482-497; also called pseudo-glycosyltransferase VldE; (His)6-tagged VldE
binding result [1]: binds
